One compound from patent publication US9351983B2, “Use of glycerophosphoinositols for the treatment of septic shock” (CONSIGLIO NAZIONALE DELLE RICERCHE, priority 2012, dated 2016) can be followed below.

For the experiment, the system named is human monocytes. Description: In vitro model of human innate immunity inflammation: morphology and viability by light microscopy. It counts as cell-based. As to conditions: 300 μM, added 20 minutes before LPS, IL-10 and TGF-β; images at 2 h, 14 h, 24 h, 48 h; one donor, preliminary. The source says:
FIG. 13—The in vitro model of human innate immunity inflammation. Schematic representation and timing of the in vitro stimulation of human monocytes. In order to mimic the microenvironmental changes and the timing of human host response that covers the different phases of the inflammatory reaction, from recruitment and onset, to development and resolution of inflammation, cultured cells have been exposed to sequential changes of microenvironmental conditions. Monocytes in culture were exposed to chemokine C-C motif ligand 2 (CCL2), responsible for monocytes recruitment to sites of injury through endothelial cells adhesion, lipopolysaccharide (LPS), as a pathogen insult, tumor necrosis factor α (TNFα) and interferon γ (IFN-γ) as inducers of acute phase of inflammation and finally with interleukin 10 (IL-10) and transforming growth factor β (TGF-β), responsible for the resolution of inflammation. In detail: at time zero freshly isolated human monocytes were exposed to CCL2 (20 ng/ml) at 37° C. […]
Freshly isolated human monocytes, which have been used for all the above-mentioned experiments, were purified from buffy coat prepared at I.N.T. Pascale in Naples. […] The viability of cells was determined by trypan blue staining. The purity of isolated cells (98%) was microscopically detected after centrifugation and staining with modified Wright-Giemsa dye (Diff Quick, Medion Diagnostic AG). […]

`O=P(O)(OCC(O)CO)OC1C(O)C(O)C(O)C(O)C1O` (stereo not shown) [GroPIns, glycerophosphoinositol]: the “cellular viability (light microscopy)” value is “cellular viability increased”.
